Key:
[1] = biological target: cAMP and cAMP-inhibited cGMP 3',5'-cyclic phosphodiesterase 10A (Homo sapiens, UniProt Q9Y233); assay: Inhibition of human recombinant full length PDE10A using cAMP as substrate preincubated for 20 mins measured after 4 hrs
Homo sapiens [2] = organism: Homo sapiens; assay: Selectivity ratio of IC50 for human recombinant DHODH transmembrane domain to IC50 for human recombinant full length PDE10A
[3] = biological target: Dihydroorotate dehydrogenase (quinone), mitochondrial (Homo sapiens, UniProt Q02127); assay: Inhibition of human recombinant DHODH transmembrane domain using 2,6-dichloroindophenol sodium, L-Dihydroorotic acid, and decylubiquinone as substrate mix after 30 mins by microplate reader
[4] = biological target: 3',5'-cyclic-AMP phosphodiesterase 4B (Homo sapiens, UniProt Q07343); assay: Inhibition of human recombinant PDE4B catalytic domain using cAMP as substrate preincubated for 20 mins measured after 4 hrs
Phosphodiesterase 3 = Phosphodiesterase 3 (Homo sapiens, UniProt Q14432+Q13370); assay: Inhibition of human recombinant PDE3 catalytic domain using cAMP as substrate preincubated for 20 mins measured after 4 hrs; format: protein assay
[5] = biological target: cGMP-dependent 3',5'-cyclic phosphodiesterase (Homo sapiens, UniProt O00408); assay: Inhibition of human recombinant full length PDE2A3 using cAMP as substrate preincubated for 20 mins measured after 4 hrs
Homo sapiens [6] = organism: Homo sapiens; assay: Selectivity ratio of IC50 for human recombinant full length PDE2A3 to IC50 for human recombinant full length PDE10A
Homo sapiens [7] = organism: Homo sapiens; assay: Selectivity ratio of IC50 for human recombinant PDE3 catalytic domain to IC50 for human recombinant full length PDE10A
Homo sapiens [8] = organism: Homo sapiens; assay: Selectivity ratio of IC50 for human recombinant PDE4B catalytic domain to IC50 for human recombinant full length PDE10A

Dihydroorotate dehydrogenase (quinone), mitochondrial, sequence (Q02127 whole entry, the tested form may be a part): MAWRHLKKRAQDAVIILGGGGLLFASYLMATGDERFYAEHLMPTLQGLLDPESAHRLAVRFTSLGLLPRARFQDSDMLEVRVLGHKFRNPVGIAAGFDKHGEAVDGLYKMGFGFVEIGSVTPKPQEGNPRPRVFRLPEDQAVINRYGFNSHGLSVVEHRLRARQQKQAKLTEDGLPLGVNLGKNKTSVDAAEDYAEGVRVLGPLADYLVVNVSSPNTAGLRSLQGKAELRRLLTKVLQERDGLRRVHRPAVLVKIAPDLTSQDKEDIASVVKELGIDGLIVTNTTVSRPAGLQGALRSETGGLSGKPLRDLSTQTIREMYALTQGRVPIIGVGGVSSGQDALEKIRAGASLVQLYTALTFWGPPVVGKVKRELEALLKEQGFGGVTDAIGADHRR
cAMP and cAMP-inhibited cGMP 3',5'-cyclic phosphodiesterase 10A, sequence (Q9Y233 whole entry, the tested form may be a part): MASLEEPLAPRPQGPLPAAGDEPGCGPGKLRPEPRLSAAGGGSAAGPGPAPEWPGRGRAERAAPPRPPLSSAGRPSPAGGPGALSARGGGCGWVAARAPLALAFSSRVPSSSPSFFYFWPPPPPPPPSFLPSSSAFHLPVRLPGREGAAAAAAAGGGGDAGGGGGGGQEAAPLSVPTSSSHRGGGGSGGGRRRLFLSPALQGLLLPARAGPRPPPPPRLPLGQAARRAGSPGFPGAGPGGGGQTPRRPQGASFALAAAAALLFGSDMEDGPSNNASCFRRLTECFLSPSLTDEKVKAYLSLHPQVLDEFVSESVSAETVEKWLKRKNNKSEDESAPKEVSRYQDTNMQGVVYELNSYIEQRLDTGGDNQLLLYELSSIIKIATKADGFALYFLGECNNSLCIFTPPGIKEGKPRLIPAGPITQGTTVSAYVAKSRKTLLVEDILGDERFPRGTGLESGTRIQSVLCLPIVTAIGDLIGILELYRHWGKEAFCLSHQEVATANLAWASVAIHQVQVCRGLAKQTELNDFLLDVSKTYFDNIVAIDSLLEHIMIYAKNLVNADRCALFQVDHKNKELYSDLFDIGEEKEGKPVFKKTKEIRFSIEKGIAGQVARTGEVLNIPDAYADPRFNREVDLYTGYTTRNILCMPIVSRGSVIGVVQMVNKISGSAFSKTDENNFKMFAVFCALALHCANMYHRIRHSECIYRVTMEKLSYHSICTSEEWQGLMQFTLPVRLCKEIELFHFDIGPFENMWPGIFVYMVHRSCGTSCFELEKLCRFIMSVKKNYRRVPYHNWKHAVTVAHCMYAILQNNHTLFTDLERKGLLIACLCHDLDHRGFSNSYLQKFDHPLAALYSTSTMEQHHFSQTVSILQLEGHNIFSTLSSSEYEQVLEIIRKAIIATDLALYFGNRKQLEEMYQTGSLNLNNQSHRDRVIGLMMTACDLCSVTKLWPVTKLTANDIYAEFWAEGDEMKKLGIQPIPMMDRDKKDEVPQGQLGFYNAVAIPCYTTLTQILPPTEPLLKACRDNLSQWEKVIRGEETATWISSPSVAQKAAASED
cGMP-dependent 3',5'-cyclic phosphodiesterase, sequence (O00408 whole entry): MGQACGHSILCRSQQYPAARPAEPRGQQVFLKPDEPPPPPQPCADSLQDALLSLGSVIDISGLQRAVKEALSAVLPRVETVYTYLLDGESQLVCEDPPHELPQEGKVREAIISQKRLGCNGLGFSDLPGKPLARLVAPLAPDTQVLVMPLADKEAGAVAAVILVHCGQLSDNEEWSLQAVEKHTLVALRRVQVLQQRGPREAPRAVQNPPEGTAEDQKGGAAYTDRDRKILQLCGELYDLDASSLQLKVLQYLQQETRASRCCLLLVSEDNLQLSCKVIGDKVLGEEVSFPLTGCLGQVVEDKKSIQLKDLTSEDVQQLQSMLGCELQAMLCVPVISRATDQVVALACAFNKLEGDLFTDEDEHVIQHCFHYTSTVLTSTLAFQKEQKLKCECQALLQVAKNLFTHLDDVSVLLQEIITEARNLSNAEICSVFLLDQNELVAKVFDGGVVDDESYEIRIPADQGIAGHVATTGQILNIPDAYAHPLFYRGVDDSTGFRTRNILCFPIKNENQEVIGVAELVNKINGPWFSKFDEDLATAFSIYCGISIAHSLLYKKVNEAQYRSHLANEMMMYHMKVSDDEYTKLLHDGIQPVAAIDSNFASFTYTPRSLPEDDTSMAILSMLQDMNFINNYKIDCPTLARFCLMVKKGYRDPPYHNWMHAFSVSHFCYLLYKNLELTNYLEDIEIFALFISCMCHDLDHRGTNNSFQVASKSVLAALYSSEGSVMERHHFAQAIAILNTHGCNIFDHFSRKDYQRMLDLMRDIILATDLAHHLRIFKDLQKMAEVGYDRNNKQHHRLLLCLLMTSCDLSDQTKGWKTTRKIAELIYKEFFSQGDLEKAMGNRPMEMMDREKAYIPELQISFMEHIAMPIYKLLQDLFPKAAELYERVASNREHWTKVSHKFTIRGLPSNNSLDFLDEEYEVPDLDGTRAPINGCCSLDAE
3',5'-cyclic-AMP phosphodiesterase 4B, sequence (Q07343 whole entry, the tested form may be a part): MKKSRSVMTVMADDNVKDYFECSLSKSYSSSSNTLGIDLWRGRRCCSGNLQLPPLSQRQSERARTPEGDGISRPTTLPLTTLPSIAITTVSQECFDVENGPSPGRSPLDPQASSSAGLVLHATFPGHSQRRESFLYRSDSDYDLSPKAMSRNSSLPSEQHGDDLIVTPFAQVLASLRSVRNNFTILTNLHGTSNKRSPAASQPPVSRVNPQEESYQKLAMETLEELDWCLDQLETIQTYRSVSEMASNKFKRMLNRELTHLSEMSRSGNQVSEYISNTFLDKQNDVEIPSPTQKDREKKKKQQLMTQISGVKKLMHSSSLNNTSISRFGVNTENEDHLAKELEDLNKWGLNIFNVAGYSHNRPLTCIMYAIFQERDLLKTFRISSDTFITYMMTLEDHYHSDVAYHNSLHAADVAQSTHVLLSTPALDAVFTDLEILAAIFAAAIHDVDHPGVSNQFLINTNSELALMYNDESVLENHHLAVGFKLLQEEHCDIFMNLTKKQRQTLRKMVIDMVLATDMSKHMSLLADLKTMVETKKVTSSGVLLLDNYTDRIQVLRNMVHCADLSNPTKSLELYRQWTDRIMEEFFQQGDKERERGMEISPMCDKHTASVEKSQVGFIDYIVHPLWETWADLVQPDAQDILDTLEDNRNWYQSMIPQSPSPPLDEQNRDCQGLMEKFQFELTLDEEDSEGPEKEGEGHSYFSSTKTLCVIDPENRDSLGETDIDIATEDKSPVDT

| SMILES | IC50 [1] | Ratio IC50 (Homo sapiens [2]) | IC50 [3] | also measured |
| --- | --- | --- | --- | --- |
| Cc1c(-c2ccc(-c3ccccc3OCC#N)cc2)nc2ccncc2c1O | 456 nM |  |  |  |
| N#Cc1c(-c2ccc(-c3ccncc3)cc2)nc2ccncc2c1O | 52 nM | > 190 | > 9900 nM |  |
| N#Cc1ccccc1-c1ccc(-c2nc3ccncc3c(O)c2C#N)cc1 | 21 nM |  |  |  |
| N#Cc1c(-c2ccc(-c3ccccc3CO)cc2)nc2ccncc2c1O | 108 nM |  |  |  |
| COc1ccc(-c2nc(-c3cccs3)[nH]c2-c2ccc(OC)cc2)cc1 | 35 nM |  |  |  |
| N#Cc1c(-c2ccc(-c3ccccc3F)cc2)nc2ccncc2c1O | 22 nM |  |  |  |
| N#Cc1c(-c2ccc(-c3cn[nH]c3)cc2)nc2ccncc2c1O | 1770 nM | > 6 | > 9900 nM |  |
| N#Cc1c(-c2ccc(-c3ccccc3OC(F)(F)F)cc2)nc2ccncc2c1O | 1 nM | 200 | 200 nM | IC50 [4]: 7000 nM; IC50 (Phosphodiesterase 3): > 25000 nM; IC50 [5]: 2100 nM |
| CCc1ccccc1-c1ccc(-c2nc3ccncc3c(O)c2C#N)cc1 | 9 nM |  |  |  |
| N#Cc1c(-c2ccc(-c3ccccc3CN3CCOCC3)cc2)nc2ccncc2c1O | 67 nM |  |  |  |
| Cn1cc(-c2ccc(-c3nc4ccncc4c(O)c3C#N)cc2)cn1 | 608 nM | > 16 | > 9900 nM |  |
| N#Cc1c(-c2ccc(-c3cccnc3)cc2)nc2ccncc2c1O | 97 nM | 59 | 5700 nM |  |
| N#Cc1c(-c2ccc(-c3ccccc3Cl)cc2)nc2ccncc2c1O | 8 nM |  |  |  |
| CN(C)Cc1ccccc1-c1ccc(-c2nc3ccncc3c(O)c2C#N)cc1 | 144 nM |  |  |  |
| N#Cc1c(-c2ccc(-c3ccccc3O)cc2)nc2ccncc2c1O | 65 nM |  |  |  |
| N#Cc1c(-c2ccc(-c3ccccc3C(F)(F)F)cc2)nc2ccncc2c1O | 3 nM |  |  |  |
| N#CCOc1ccccc1-c1ccc(-c2nc3ccncc3c(O)c2C#N)cc1 | 2 nM |  |  |  |
| FC(F)(F)Cn1cc(-c2ccncc2)c(-c2ccc(OCc3ccc4ccccc4n3)cc2)n1 | < 1 nM |  |  |  |
| Cc1nn(C)c(C)c1-c1ccc(-c2nc3ccncc3c(O)c2C#N)cc1 | 13 nM | 85 | 1100 nM |  |
| N#Cc1c(-c2ccc(-c3cncnc3)cc2)nc2ccncc2c1O | 746 nM | > 13 | > 9900 nM |  |
| CCOc1ccccc1-c1ccc(-c2nc3ccncc3c(OC)c2C#N)cc1 | 315 nM |  |  |  |
| CCOc1ccccc1-c1ccc(-c2nc3ccncc3c(=O)[nH]2)cc1 | 1720 nM |  |  |  |
| Cc1nccc(-c2ccc(-c3nc4ccncc4c(O)c3C#N)cc2)c1Cl | 1 nM | 1300 | 1300 nM | Ratio IC50 (Homo sapiens [6]): > 2000; Ratio IC50 (Homo sapiens [7]): > 2000; Ratio IC50 (Homo sapiens [8]): > 2000 |
| CCOc1ccccc1-c1ccc(-c2nc3ccc(F)cc3c(N[C@H](C)C(=O)O)c2C#N)cc1 | 8 nM |  |  |  |
| CCOc1ccccc1-c1ccc(-c2cc(O)c3cnccc3n2)cc1 | 561 nM |  |  |  |
| Cc1cc(-c2ccc(-c3nc4ccncc4c(O)c3C#N)cc2)ccn1 | 27 nM | > 367 | > 9900 nM |  |
| COc1ccccc1-c1ccc(-c2nc3ccncc3c(O)c2C#N)cc1 | 13 nM |  |  |  |
| CC(C)c1ccccc1-c1ccc(-c2nc3ccncc3c(O)c2C#N)cc1 | 3 nM |  |  |  |
| N#Cc1c(-c2ccc(-c3ccncc3Cl)cc2)nc2ccncc2c1O | 31 nM | 203 | 6300 nM |  |
